Values of other authors in US8047146B2, “Subsurface soil injection apparatus and method” (priority 2001, dated 2011).
Values after ≈ are worked out from the molar mass of the structure shown.

Key:
[1] = rapidly photodegrades in light

For `CI` [Iodomethane, iodomethane], the solubility in water is given as 14.2 mg/mL (≈ 100 mM) and the “lifetime in the atmosphere” value [1] is given as 1.5 to 4 days.
